IC50 and inhibition data for 26 molecules are collected here from patent US7576222B2, “Alkynyl-containing tryptophan derivative inhibitors of TACE/matrix metalloproteinase” (priority 2004, dated 2009).

The first assay deals with T1, catalytic domain of the recombinant TACE protein (Homo sapiens, UniProt P78536).
T1 construct: The catalytic domain of the recombinant TACE protein was expressed and purified; made in house
T1 sequence (P78536 223-474 limits assumed): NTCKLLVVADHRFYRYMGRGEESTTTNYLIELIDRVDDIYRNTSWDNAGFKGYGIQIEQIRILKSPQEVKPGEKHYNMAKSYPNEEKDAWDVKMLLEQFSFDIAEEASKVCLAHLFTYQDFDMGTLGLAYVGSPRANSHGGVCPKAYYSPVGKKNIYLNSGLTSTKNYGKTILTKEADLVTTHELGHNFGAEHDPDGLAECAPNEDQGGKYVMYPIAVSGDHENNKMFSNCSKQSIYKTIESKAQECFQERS
The assay is described as follows: TACE FRET assay using TACE cat. It counts as biochemical.
Conditions: not given
As to the method:
TACE FRET Assay Using TACE Cat
“K” is the IC50. Generally, “n” and “B” are floated, noting that n (Hill slope) should be close to 1 and B (background offset) to 0.
Pro-TNF-α substrate peptide Abz-[…]-Dpa (AnaSpec, San Jose, Calif., WARC-1) was prepared as a 2 mM stock solution in the TACE assay buffer (50 mM Tris-HCl, pH 7.4, 25 mM NaCl, 4% Glycerol, 0.005% Brij 35). The catalytic domain of the recombinant TACE protein was expressed and purified. The TACE protein (1 ug/ml) was pretreated with the inhibitors at various concentrations for 10 min. at room temperature. The reaction was initiated by the addition of the substrate peptide. […] The initial rate (slope) of the reaction was determined using a fluorescence plate reader (Molecular Devices, Spectra Max Gemini XS).
For `CC#CCOc1ccc(S(=O)(=O)N[C@@H](Cc2c(C)n(Cc3ccccc3)c3ccc(OC)cc23)C(=O)O)cc1` [Example 185, 1-benzyl-N-{[4-(but-2-ynyloxy)phenyl]sulfonyl}-5-methoxy-2-methyltryptophan], the IC50 came to 200 nM.

Regarding `CC#CCOc1ccc(S(=O)(=O)N[C@H](Cc2cn(Cc3ccc(C#N)cc3)c3ccccc23)C(=O)O)cc1` [Example 45, N-{[4-(but-2-ynyloxy)phenyl]sulfonyl}-1-(4-cyanobenzyl)-D-tryptophan], the IC50 stood at 4040 nM.

Regarding `CC#CCOc1ccc(S(=O)(=O)N[C@H](Cc2cn(C)c3ccccc23)C(=O)O)cc1` [Example 21, N-{[4-(but-2-ynyloxy)phenyl]sulfonyl}-1-methyl-D-tryptophan], the 50% inhibitory concentration (IC50) turned out to be 1400 nM.

As for `CC#CCOc1ccc(S(=O)(=O)N[C@@H](Cc2cn(CC(C)C)c3ccc(OC)cc23)C(=O)O)cc1` [Example 67, N-{[4-(but-2-ynyloxy)phenyl]sulfonyl}-1-isobutyl-5-methoxytryptophan], the IC50 was found to be 1230 nM.

Consider `CC#CCOc1ccc(S(=O)(=O)N[C@@H](Cc2c[nH]c3ccc(F)cc23)C(=O)O)cc1` [Example 3, N-{[4-(but-2-ynyloxy)phenyl]sulfonyl}-5-fluorotryptophan], for which the IC50 was 1560 nM.

Take `CC#CCOc1ccc(S(=O)(=O)N[C@@H](Cc2c(C)n(Cc3ccccc3F)c3ccc(OC)cc23)C(=O)O)cc1` [Example 197, N-{[4-(but-2-ynyloxy)phenyl]sulfonyl}-1-(2-fluorobenzyl)-5-methoxy-2-methyltryptophan]: the IC50 came out at 300 nM.

The assay is the same for the next values; noted with them: TACE FRET assay, catalytic domain of recombinant TACE; read-out: TACE IC50.
Consider `CC#CCOc1ccc(S(=O)(=O)N[C@H](Cc2cn(Cc3ccccc3)c3ccccc23)C(=O)O)cc1` [Example 25, 1-benzyl-N-{[4-(but-2-ynyloxy)phenyl]sulfonyl}-D-tryptophan], for which the IC50 worked out at 2150 nM.

With “N-{[4-(but-2-ynyloxy)phenyl]sulfonyl}-methoxy-L(or D)-tryptophan [Example 222]”, the IC50 was 10100 nM.

The same assay, now with this note: read-out: TACE Inhibition (%).
As to `CC#CCOc1ccc(S(=O)(=O)N[C@@H](Cc2c(C)n(Cc3ccccc3OC)c3ccccc23)C(=O)O)cc1` [Example 146, N-{[4-(but-2-ynyloxy)phenyl]sulfonyl}-1-(2-methoxybenzyl)-2-methyltryptophan], the inhibition at 1 µM was found to be 35.9%.

As to `CC#CCOc1ccc(S(=O)(=O)N[C@@H](Cc2cn(Cc3ccccc3)c3ccc(C#N)cc23)C(=O)O)cc1` [Example 135, 1-benzyl-N-{[4-(but-2-ynyloxy)phenyl]sulfonyl}-5-cyanotryptophan], the inhibition at 1 µM is 29.6%.

In the case of `CC#CCOc1ccc(S(=O)(=O)N[C@@H](Cc2cn(Cc3cc(OC)cc(OC)c3)c3ccc(OC)cc23)C(=O)O)cc1` [Example 54, N-{[4-(but-2-ynyloxy)phenyl]sulfonyl}-1-(3,5-dimethoxybenzyl)-5-methoxytryptophan], the inhibition at 1 µM amounted to 38%.

Take `CC#CCOc1ccc(S(=O)(=O)N[C@@H](Cc2c(C)n(Cc3ccc(OC(F)(F)F)cc3)c3ccc(OC)cc23)C(=O)O)cc1` [Example 196, N-{[4-(but-2-ynyloxy)phenyl]sulfonyl}-5-methoxy-2-methyl-1-[4-(trifluoromethoxy)benzyl]tryptophan]: the inhibition at 1 µM turned out to be 72.8%.

Turning to `CC#CCOc1ccc(S(=O)(=O)N[C@@H](Cc2cn(Cc3ccccc3C)c3ccc(C(=O)O)cc23)C(=O)O)cc1` [Example 104, N-{[4-(but-2-ynyloxy)phenyl]sulfonyl}-5-carboxy-1-(2-methylbenzyl)tryptophan], the inhibition at 1 µM was determined as 5.79%.

As for `CC#CCOc1ccc(S(=O)(=O)N[C@@H](Cc2cn(Cc3ccc(OC)cc3)c3ccc(C(=O)O)cc23)C(=O)O)cc1` [Example 109, N-{[4-(but-2-ynyloxy)phenyl]sulfonyl}-5-carboxy-1-(4-methoxybenzyl)tryptophan], the inhibition at 1 µM worked out at 7.93%.

Turning to `CC#CCOc1ccc(S(=O)(=O)N[C@@H](Cc2c(C)n(Cc3ccc(C(F)(F)F)cc3)c3ccccc23)C(=O)O)cc1` [Example 150, N-{[4-(but-2-ynyloxy)phenyl]sulfonyl}-2-methyl-1-[4-(trifluoromethyl)benzyl]tryptophan], the inhibition at 1 µM is 35.6%.

In the case of `CC#CCOc1ccc(S(=O)(=O)N[C@@H](Cc2cn(Cc3cccc(OC)c3)c3ccc(C(=O)O)cc23)C(=O)O)cc1` [Example 108, N-{[4-(but-2-ynyloxy)phenyl]sulfonyl}-5-carboxy-1-(3-methoxybenzyl)tryptophan], the inhibition at 1 µM is 9.93%.

In the case of `CC#CCOc1ccc(S(=O)(=O)N[C@@H](Cc2cn(CC3CCCCC3)c3ccc(Cl)cc23)C(=O)O)cc1` [Example 87, N-{[4-(but-2-ynyloxy)phenyl]sulfonyl}-5-chloro-1-(cyclohexylmethyl)tryptophan], the inhibition at 1 µM turned out to be 37.4%.

In the case of `CC#CCOc1ccc(S(=O)(=O)N[C@@H](Cc2cn(Cc3ccc(C(F)(F)F)cc3)c3ccc(Cl)cc23)C(=O)O)cc1` [Example 77, N-{[4-(but-2-ynyloxy)phenyl]sulfonyl}-5-chloro-1-[4-(trifluoromethyl)benzyl]tryptophan], the inhibition at 1 µM was determined as 29.8%.

With `CC#CCOc1ccc(S(=O)(=O)N[C@@H](Cc2cn(CC(C)C)c3ccc(Cl)cc23)C(=O)O)cc1` [Example 85, N-{[4-(but-2-ynyloxy)phenyl]sulfonyl}-5-chloro-1-isobutyltryptophan], the inhibition at 1 µM was 32.9%.

For `CC#CCOc1ccc(S(=O)(=O)N[C@@H](Cc2c(C)[nH]c3ccccc23)C(=O)O)cc1` [Example 134, N-{[4-(but-2-ynyloxy)phenyl]sulfonyl}-2-methyltryptophan], the inhibition at 1 µM is 64.2%.

In the case of `CC#CCOc1ccc(S(=O)(=O)N[C@@H](Cc2c(C)n(Cc3ccccc3)c3ccccc23)C(=O)O)cc1` [Example 144, 1-benzyl-N-{[4-(but-2-ynyloxy)phenyl]sulfonyl}-2-methyltryptophan], the inhibition at 1 µM was determined as 18.8%.

Turning to `CC#CCOc1ccc(S(=O)(=O)N[C@@H](Cc2c[nH]c3ccc(Cl)cc23)C(=O)O)cc1` [Example 133, N-{[4-(but-2-ynyloxy)phenyl]sulfonyl}-5-chlorotryptophan], the inhibition at 1 µM was determined as 73.9%.

On to `CC#CCOc1ccc(S(=O)(=O)N[C@@H](Cc2c(C)n(Cc3ccc(C(F)(F)F)cc3)c3ccc(Cl)cc23)C(=O)O)cc1` [Example 93, N-{[4-(but-2-ynyloxy)phenyl]sulfonyl}-5-chloro-2-methyl-1-[4-(trifluoromethyl)benzyl]tryptophan], for which the inhibition at 1 µM stood at 53.8%.

Regarding `CC#CCOc1ccc(S(=O)(=O)N[C@@H](Cc2c(C)n(CC3CCC3)c3ccc(OC)cc23)C(=O)O)cc1` [Example 212, N-{[4-(but-2-ynyloxy)phenyl]sulfonyl}-1-(cyclobutylmethyl)-5-methoxy-2-methyltryptophan], the inhibition at 1 µM is 59.5%.

As for `CC#CCOc1ccc(S(=O)(=O)N[C@@H](Cc2cn(Cc3ccc(C(C)C)cc3)c3ccc(C#N)cc23)C(=O)O)cc1` [Example 142, N-{[4-(but-2-ynyloxy)phenyl]sulfonyl}-5-cyano-1-(4-isopropylbenzyl)tryptophan], the inhibition at 1 µM turned out to be 8.34%.

Take `CC#CCOc1ccc(S(=O)(=O)N[C@@H](Cc2c(C)n(CC3CCCCC3)c3ccc(Cl)cc23)C(=O)O)cc1` [Example 102, N-{[4-(but-2-ynyloxy)phenyl]sulfonyl}-5-chloro-1-(cyclohexylmethyl)-2-methyltryptophan]: the inhibition at 1 µM was 56.9%.

What is called IC50 is the concentration at which inhibition is half-maximal. A word on the inhibition: it is the share of the control response that was lost under treatment.
